# Assay results as given in publication PMC9029695, “5-Aryl-1,3,4-oxadiazol-2-amines Decorated with Long Alkyl and Their Analogues: Synthesis, Acetyl- and Butyrylcholinesterase Inhibition and Docking Study” (Pharmaceuticals, 2022).
# What was measured:
# [1] = target: T1, AChE (Electrophorus electricus, UniProt O42275); assay: Reversibility of AChE inhibition (residual enzyme activity over time); format: biochemical, electric eel (Electrophorus electricus L.)
# T1 construct: purchased Merck (Prague, Czech Republic)
# From the text: Based on the promising in vitro inhibition of AChE by thiadiazole 3t, we investigated the derivative to distinguish between reversible, pseudo-irreversible and irreversible inhibition on the basis of changes in enzyme activity over time in the presence of the inhibitor. In reversible inhibition, the activity of enzyme goes down immediately, but the inhibitory molecule is bound to the target for a short period of time, after which the inhibitor-enzyme complex dissociates, and enzyme activity is restored. In pseudo-irreversible inhibition, the inhibitor binds covalently to the enzyme, but the bond is broken down more slowly, delaying the return of enzyme activity to its initial state. In the case of irreversible inhibitors, the reaction between the enzyme and the inhibitor is not rapid because there is a time-dependent drop of activity. Irreversible inhibitors decrease enzyme activity gradually. […]
# Three different inhibitor concentrations (1, 10, and 100 µM) were chosen. […] At given times (5, 10, 15, 20, 30, 40, 50, 60, 260, and 1450 min), DTNB and ATCh were added to the sample taken from the reaction mixture, mixed rapidly, and the absorbance was measured to quantify the enzyme activity. Based on knowledge of the enzyme activity in the absence of the inhibitor (i.e., 100% activity), the percentages of residual enzyme activity in presence of inhibitor were calculated. […]
# [2] = target: T2, BChE from equine serum (EqBChE) (Equus caballus, UniProt P81908); assay: Inhibition of BChE, modified Ellman's spectrophotometric method; format: biochemical
# T2 construct: butyrylcholinesterase originated from equine serum (EqBChE); purchased Merck (Prague, Czech Republic); host or cells: equine serum
# From the text: (§1) The heterocycles 3 were screened for their ability to interfere with the function of AChE from electric eel (EeAChE) and BChE from equine serum (EqBChE) using Ellman’s method (Table 1). Their activities are expressed as the concentration producing 50% inhibition of enzymatic activity (IC50). In addition, we calculated selectivity indexes (SI) that quantify the selectivity for AChE as more inhibited cholinesterase. SI is the ratio of IC50 for BChE/IC50 for AChE.
# (§2) Enzyme inhibition activity of 3 quantified as IC50 values was determined spectrophotometrically using modified Ellman’s method. […] The enzyme activity is measured indirectly by determination of 5-mercapto-2-nitrobenzoic acid ion formed after reaction of the thiol reagent 5,5′-disulfanediyl-bis(2-nitrobenzoic acid) (DTNB) and thiocholine, a product of acetylthiocholine (ATCh) and butyrylthiocholine (BTCh) as substrates for hydrolysis by AChE and BChE, respectively.
# (§3) The enzyme activity in final reaction mixture (2000 µL) was 0.2 U/mL, concentration of ATCh (or BTCh) 40 µM and concentration of DTNB 100 µM for all reactions. The compounds 3 were dissolved in DMSO and then diluted in demineralized water (conductivity 3 μS, equipment supplier BKG Water Treatment, Hradec Králové, Czech Republic) to the concentration of 1000 µM. […] The final concentration of DMSO was 0.2%. All experiments were carried in triplicates. The average values of reaction rate (v0-uninhibited reaction, vi-inhibited reaction) were used for construction of the dependence v0/vi vs. concentration of inhibitor. From obtained equation of regression curve, IC50 values were calculated.
# (§4) Acetylcholinesterase was used from electric eel (Electrophorus electricus L.; EeAChE) and butyrylcholinesterase originated from equine serum (EqBChE).
# [3] = target: T1, AChE; assay: Type of AChE inhibition (Lineweaver–Burk plot); format: biochemical, electric eel (Electrophorus electricus L.); conditions: ATCh 20–80 µM, inhibitor 10, 25, 35 and 50 µM
# From the text: We also valuated the type of inhibition of 3t using AChE. In general, the reversible inhibitors can be classified as competitive, non-competitive, uncompetitive, or mixed type. The type of inhibition could be distinguished using the Lineweaver–Burk plot and the corresponding comparison of two key kinetic parameters: maximum velocity (Vm) and Michaelis constant (KM) of the inhibited and uninhibited reactions. Based on the changes of these parameters and intercept of the lines in Lineweaver–Burk plot, the type of inhibition is uncovered.
# The inhibition is associated with a change in both KM and Vm and also their ratio is different compared to the uninhibited reaction. In the Lineweaver–Burk plot, the intersection of the lines is in quadrant III but not on axis.
# The procedure was analogous to the determination of IC50. The enzyme activity in the final reaction mixture (2000 µL) was 0.2 U/mL, concentration of ATCh 20–80 µM and concentration of DTNB was 100 µM. For each of the substrate concentrations, four different concentrations of the inhibitor were used (10, 25, 35 and 50 µM). The dependence of absorbance vs. time was observed and the reaction rate was calculated. […] From obtained equations of regression curves in Lineweaver–Burk plot, the values of Michaelis constant (KM) and maximum velocity (Vm) were calculated. […]
# [4] = target: T3, AChE from electric eel (EeAChE) (Electrophorus electricus, UniProt O42275); assay: Inhibition of AChE, modified Ellman's spectrophotometric method; format: biochemical, electric eel (Electrophorus electricus L.)
# T3 construct: purchased Merck (Prague, Czech Republic)
# From the text: as §1, §2, §3, §4
# T3 sequence (O42275 24-633): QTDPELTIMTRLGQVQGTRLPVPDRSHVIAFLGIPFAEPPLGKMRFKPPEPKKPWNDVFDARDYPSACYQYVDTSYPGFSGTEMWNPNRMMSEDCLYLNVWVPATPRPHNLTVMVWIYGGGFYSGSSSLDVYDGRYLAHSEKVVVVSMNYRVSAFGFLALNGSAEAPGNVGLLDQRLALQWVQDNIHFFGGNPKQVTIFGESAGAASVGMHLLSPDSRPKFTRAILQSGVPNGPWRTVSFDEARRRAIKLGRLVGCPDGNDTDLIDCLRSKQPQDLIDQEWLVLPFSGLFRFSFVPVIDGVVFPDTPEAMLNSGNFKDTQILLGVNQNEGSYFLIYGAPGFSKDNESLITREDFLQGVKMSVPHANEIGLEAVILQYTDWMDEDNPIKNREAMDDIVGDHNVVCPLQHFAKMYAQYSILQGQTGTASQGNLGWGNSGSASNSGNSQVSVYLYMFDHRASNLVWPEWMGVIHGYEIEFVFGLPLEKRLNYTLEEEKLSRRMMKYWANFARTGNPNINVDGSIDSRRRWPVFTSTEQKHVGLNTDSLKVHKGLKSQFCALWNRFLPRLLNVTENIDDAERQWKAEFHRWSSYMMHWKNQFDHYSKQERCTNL
# T1 sequence (O42275 24-633): as above
# T2 sequence (P81908 whole entry): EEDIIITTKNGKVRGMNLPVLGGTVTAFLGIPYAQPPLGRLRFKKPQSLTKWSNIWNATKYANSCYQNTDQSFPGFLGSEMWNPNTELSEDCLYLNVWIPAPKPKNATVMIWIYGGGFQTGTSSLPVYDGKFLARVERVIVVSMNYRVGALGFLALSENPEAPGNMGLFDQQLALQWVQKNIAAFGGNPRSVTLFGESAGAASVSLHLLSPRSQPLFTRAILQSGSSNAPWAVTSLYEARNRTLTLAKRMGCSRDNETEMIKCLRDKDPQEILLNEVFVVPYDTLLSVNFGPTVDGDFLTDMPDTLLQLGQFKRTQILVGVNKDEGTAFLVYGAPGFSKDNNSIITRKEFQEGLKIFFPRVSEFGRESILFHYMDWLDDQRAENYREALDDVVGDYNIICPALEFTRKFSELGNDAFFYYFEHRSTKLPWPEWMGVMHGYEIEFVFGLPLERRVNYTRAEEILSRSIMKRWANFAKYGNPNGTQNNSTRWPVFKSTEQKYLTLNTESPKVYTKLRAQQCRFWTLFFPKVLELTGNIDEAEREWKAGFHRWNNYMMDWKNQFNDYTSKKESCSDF
smiles,measurement,setting,value
"CCCCCCCCCCCCNc1nnc(-c2ccncc2)s1 [3t, N-Dodecyl-5-(pyridin-4-yl)-1,3,4-thiadiazol-2-amine]",reversibility of AChE inhibition,"[1]; 1, 10 and 100 µM, residual activity followed 5–1450 min",reversible AChE inhibitor
same,time at which almost maximum inhibition is reached,[1]; two lower concentrations (1 and 10 µM),5 min
same,"fold boost of BChE inhibitory potency, switch of oxygen to sulfur",[2]; 3l vs. 3t,4.2 ×
same,IC50,"[2]; EqBChE, Ellman's method, mean ± SD, n = three independent experiments",53.1 ± 3.68 µM
same,type of inhibition,[3],mixed type of inhibition
same,IC50,"[4]; EeAChE, Ellman's method, mean ± SD, n = three independent experiments",12.78 ± 0.03 µM
same,fold higher in vitro activity (IC50) against AChE than rivastigmine,[4]; compared with rivastigmine,4.4 ×
same,"BChE/AChE Ratio (selectivity index, IC50 for BChE/IC50 for AChE)",[4]; selectivity for AChE,4.2
